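Interpolation was linear, between the two tested concentrations surrounding the appropriate level; five concentrations were tested over 48 hours in 96-well plates. Definition used: TGI = concentration required for complete inhibition of growth.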
Tests used:
Assay in all cases: inhibition of tumour cell growth, NCI panel, 48 h
RPMI-8226 leukemia = tested on: RPMI-8226 leukemia
A498 renal = tested on: A498 renal
SNB-75 CNS = tested on: SNB-75 CNS
COLO 205 colon = tested on: COLO 205 colon
BT-549 breast = tested on: BT-549 breast
A549 NSCLC = tested on: A549 NSCLC
HOP-62 NSCLC = tested on: HOP-62 NSCLC
UACC-62 melanoma = tested on: UACC-62 melanoma
OVCAR-4 ovarian = tested on: OVCAR-4 ovarian
SW-620 colon = tested on: SW-620 colon
HS 578T breast = tested on: HS 578T breast
HCT-15 colon = tested on: HCT-15 colon
786-0 renal = tested on: 786-0 renal
CAKI-1 renal = tested on: CAKI-1 renal
HL-60(TB) leukemia = tested on: HL-60(TB) leukemia
SK-MEL-5 melanoma = tested on: SK-MEL-5 melanoma
SR leukemia = tested on: SR leukemia
HOP-92 NSCLC = tested on: HOP-92 NSCLC
NCI-H23 lung = tested on: NCI-H23 lung
U251 CNS = tested on: U251 CNS
NCI-H226 lung = tested on: NCI-H226 lung
IGROV1 ovarian = tested on: IGROV1 ovarian
SK-MEL-28 melanoma = tested on: SK-MEL-28 melanoma
DU-145 prostate = tested on: DU-145 prostate
KM12 colon = tested on: KM12 colon
MOLT-4 leukemia = tested on: MOLT-4 leukemia
MDA-MB-231 breast = tested on: MDA-MB-231 breast
SF-295 CNS = tested on: SF-295 CNS
K-562 leukemia = tested on: K-562 leukemia
SNB-19 CNS = tested on: SNB-19 CNS
OVCAR-3 ovarian = tested on: OVCAR-3 ovarian
OVCAR-5 ovarian = tested on: OVCAR-5 ovarian
TK-10 renal = tested on: TK-10 renal
UACC-257 melanoma = tested on: UACC-257 melanoma
EKVX NSCLC = tested on: EKVX NSCLC
MALME-3M melanoma = tested on: MALME-3M melanoma
T-47D breast = tested on: T-47D breast
RXF 393 renal = tested on: RXF 393 renal
LOX IMVI melanoma = tested on: LOX IMVI melanoma
PC-3 prostate = tested on: PC-3 prostate
SF-268 CNS = tested on: SF-268 CNS
ACHN renal = tested on: ACHN renal
NCI-H460 lung = tested on: NCI-H460 lung
HCT-116 colon = tested on: HCT-116 colon
CCRF-CEM leukemia = tested on: CCRF-CEM leukemia
SK-MEL-2 melanoma = tested on: SK-MEL-2 melanoma
SF-539 CNS = tested on: SF-539 CNS
M14 melanoma = tested on: M14 melanoma
MCF7 breast = tested on: MCF7 breast
OVCAR-8 ovarian = tested on: OVCAR-8 ovarian
MDA-N = tested on: MDA-N
HCC-2998 colon = tested on: HCC-2998 colon
SN12C renal = tested on: SN12C renal
NCI/ADR-RES ovarian = tested on: NCI/ADR-RES ovarian
SK-OV-3 ovarian = tested on: SK-OV-3 ovarian
UO-31 renal = tested on: UO-31 renal
NCI-H522 lung = tested on: NCI-H522 lung
MDA-MB-435 = tested on: MDA-MB-435
HT29 colon = tested on: HT29 colon

Question: With COc1ccc(C2Oc3ccc(Cl)cc3C=C2[N+](=O)[O-])cc1OC (stereo unspecified) as the compound, how does the TGI (RPMI-8226 leukemia) read?
Answer: 0.608 µM

Question: What about the TGI (A498 renal) of the same compound?
Answer: 7.36 µM

Question: What about the TGI (SNB-75 CNS) of the same compound?
Answer: 2.45 µM

Question: What about the TGI (COLO 205 colon) of the same compound?
Answer: 4.41 µM

Question: And the TGI (BT-549 breast)?
Answer: 2.62 µM

Question: And the TGI (A549 NSCLC)?
Answer: 5.04 µM

Question: What about the TGI (HOP-62 NSCLC) of the same compound?
Answer: 3.12 µM

Question: What about the TGI (UACC-62 melanoma) of the same compound?
Answer: 3.65 µM

Question: And the TGI (OVCAR-4 ovarian)?
Answer: 3.46 µM

Question: And the TGI (SW-620 colon)?
Answer: 0.497 µM

Question: And the TGI (HS 578T breast)?
Answer: 15.5 µM

Question: What about the TGI (HCT-15 colon) of the same compound?
Answer: 3.09 µM

Question: What about the TGI (786-0 renal) of the same compound?
Answer: 0.871 µM

Question: And the TGI (CAKI-1 renal)?
Answer: 3.93 µM

Question: What about the TGI (HL-60(TB) leukemia) of the same compound?
Answer: 0.47 µM

Question: What about the TGI (SK-MEL-5 melanoma) of the same compound?
Answer: 2.96 µM

Question: What about the TGI (SR leukemia) of the same compound?
Answer: 0.307 µM

Question: And the TGI (HOP-92 NSCLC)?
Answer: 4.33 µM

Question: What about the TGI (NCI-H23 lung) of the same compound?
Answer: 4.35 µM

Question: What about the TGI (U251 CNS) of the same compound?
Answer: 2.35 µM

Question: And the TGI (NCI-H226 lung)?
Answer: 4.24 µM

Question: What about the TGI (IGROV1 ovarian) of the same compound?
Answer: 3.35 µM

Question: And the TGI (SK-MEL-28 melanoma)?
Answer: 3.58 µM

Question: And the TGI (DU-145 prostate)?
Answer: 2.97 µM

Question: What about the TGI (KM12 colon) of the same compound?
Answer: 2.86 µM

Question: And the TGI (MOLT-4 leukemia)?
Answer: 0.733 µM

Question: What about the TGI (MDA-MB-231 breast) of the same compound?
Answer: 2.59 µM

Question: What about the TGI (SF-295 CNS) of the same compound?
Answer: 3.46 µM

Question: What about the TGI (K-562 leukemia) of the same compound?
Answer: 1.08 µM

Question: And the TGI (SNB-19 CNS)?
Answer: 5.02 µM

Question: And the TGI (OVCAR-3 ovarian)?
Answer: 2.06 µM

Question: What about the TGI (OVCAR-5 ovarian) of the same compound?
Answer: 3.14 µM

Question: What about the TGI (TK-10 renal) of the same compound?
Answer: 2.87 µM

Question: What about the TGI (UACC-257 melanoma) of the same compound?
Answer: 4.07 µM

Question: And the TGI (EKVX NSCLC)?
Answer: 7.13 µM

Question: What about the TGI (MALME-3M melanoma) of the same compound?
Answer: 4.28 µM

Question: And the TGI (T-47D breast)?
Answer: 4.35 µM

Question: What about the TGI (RXF 393 renal) of the same compound?
Answer: 3.04 µM

Question: What about the TGI (LOX IMVI melanoma) of the same compound?
Answer: 1.43 µM

Question: What about the TGI (PC-3 prostate) of the same compound?
Answer: 2.95 µM

Question: And the TGI (SF-268 CNS)?
Answer: 5 µM

Question: What about the TGI (ACHN renal) of the same compound?
Answer: 2.77 µM

Question: And the TGI (NCI-H460 lung)?
Answer: 5.95 µM

Question: And the TGI (HCT-116 colon)?
Answer: 1.62 µM

Question: What about the TGI (CCRF-CEM leukemia) of the same compound?
Answer: 0.372 µM

Question: And the TGI (SK-MEL-2 melanoma)?
Answer: 3.05 µM

Question: And the TGI (SF-539 CNS)?
Answer: 3.13 µM

Question: What about the TGI (M14 melanoma) of the same compound?
Answer: 1.63 µM

Question: What about the TGI (MCF7 breast) of the same compound?
Answer: 3.39 µM

Question: What about the TGI (OVCAR-8 ovarian) of the same compound?
Answer: 2.64 µM

Question: What about the TGI (MDA-N) of the same compound?
Answer: 1.11 µM

Question: What about the TGI (HCC-2998 colon) of the same compound?
Answer: 3.33 µM

Question: What about the TGI (SN12C renal) of the same compound?
Answer: 2.82 µM

Question: What about the TGI (NCI/ADR-RES ovarian) of the same compound?
Answer: 2.12 µM

Question: What about the TGI (SK-OV-3 ovarian) of the same compound?
Answer: 6.11 µM

Question: And the TGI (UO-31 renal)?
Answer: 3.47 µM

Question: And the TGI (NCI-H522 lung)?
Answer: 2.66 µM

Question: And the TGI (MDA-MB-435)?
Answer: 1.21 µM

Question: Which TGI (RPMI-8226 leukemia) does the source give for CCOC(=O)C(C)c1nc2cc(N3CCOCC3)c(F)cc2[nH]c1=O (stereo unspecified) here?
Answer: > 100 µM

Question: And the TGI (A498 renal)?
Answer: > 100 µM

Question: And the TGI (SNB-75 CNS)?
Answer: > 100 µM

Question: And the TGI (COLO 205 colon)?
Answer: > 100 µM

Question: What about the TGI (BT-549 breast) of the same compound?
Answer: > 100 µM

Question: What about the TGI (A549 NSCLC) of the same compound?
Answer: > 100 µM

Question: What about the TGI (HT29 colon) of the same compound?
Answer: > 100 µM

Question: What about the TGI (HOP-62 NSCLC) of the same compound?
Answer: > 100 µM

Question: What about the TGI (UACC-62 melanoma) of the same compound?
Answer: > 100 µM

Question: What about the TGI (OVCAR-4 ovarian) of the same compound?
Answer: > 100 µM

Question: What about the TGI (SW-620 colon) of the same compound?
Answer: > 100 µM

Question: And the TGI (HS 578T breast)?
Answer: > 100 µM

Question: What about the TGI (HCT-15 colon) of the same compound?
Answer: > 100 µM

Question: And the TGI (786-0 renal)?
Answer: > 100 µM

Question: What about the TGI (CAKI-1 renal) of the same compound?
Answer: > 100 µM

Question: And the TGI (HL-60(TB) leukemia)?
Answer: > 100 µM

Question: And the TGI (SK-MEL-5 melanoma)?
Answer: > 100 µM

Question: What about the TGI (SR leukemia) of the same compound?
Answer: > 100 µM

Question: What about the TGI (HOP-92 NSCLC) of the same compound?
Answer: > 100 µM

Question: What about the TGI (NCI-H23 lung) of the same compound?
Answer: > 100 µM

Question: And the TGI (U251 CNS)?
Answer: > 100 µM

Question: And the TGI (NCI-H226 lung)?
Answer: > 100 µM

Question: And the TGI (IGROV1 ovarian)?
Answer: > 100 µM

Question: And the TGI (SK-MEL-28 melanoma)?
Answer: > 100 µM

Question: What about the TGI (DU-145 prostate) of the same compound?
Answer: > 100 µM

Question: What about the TGI (KM12 colon) of the same compound?
Answer: > 100 µM

Question: What about the TGI (MOLT-4 leukemia) of the same compound?
Answer: > 100 µM

Question: What about the TGI (MDA-MB-231 breast) of the same compound?
Answer: > 100 µM

Question: What about the TGI (SF-295 CNS) of the same compound?
Answer: > 100 µM

Question: What about the TGI (K-562 leukemia) of the same compound?
Answer: > 100 µM

Question: And the TGI (SNB-19 CNS)?
Answer: > 100 µM

Question: And the TGI (OVCAR-3 ovarian)?
Answer: > 100 µM

Question: And the TGI (OVCAR-5 ovarian)?
Answer: > 100 µM

Question: And the TGI (TK-10 renal)?
Answer: > 100 µM

Question: What about the TGI (UACC-257 melanoma) of the same compound?
Answer: > 100 µM

Question: And the TGI (EKVX NSCLC)?
Answer: > 100 µM

Question: And the TGI (MALME-3M melanoma)?
Answer: > 100 µM

Question: What about the TGI (T-47D breast) of the same compound?
Answer: > 100 µM

Question: What about the TGI (RXF 393 renal) of the same compound?
Answer: > 100 µM

Question: What about the TGI (PC-3 prostate) of the same compound?
Answer: > 100 µM

Question: And the TGI (SF-268 CNS)?
Answer: > 100 µM

Question: What about the TGI (ACHN renal) of the same compound?
Answer: > 100 µM

Question: What about the TGI (NCI-H460 lung) of the same compound?
Answer: > 100 µM

Question: And the TGI (HCT-116 colon)?
Answer: > 100 µM

Question: And the TGI (CCRF-CEM leukemia)?
Answer: > 100 µM

Question: What about the TGI (SK-MEL-2 melanoma) of the same compound?
Answer: > 100 µM

Question: What about the TGI (SF-539 CNS) of the same compound?
Answer: > 100 µM

Question: What about the TGI (M14 melanoma) of the same compound?
Answer: > 100 µM

Question: And the TGI (MCF7 breast)?
Answer: > 100 µM

Question: What about the TGI (OVCAR-8 ovarian) of the same compound?
Answer: > 100 µM

Question: What about the TGI (MDA-N) of the same compound?
Answer: > 100 µM

Question: What about the TGI (HCC-2998 colon) of the same compound?
Answer: > 100 µM

Question: What about the TGI (SN12C renal) of the same compound?
Answer: > 100 µM

Question: And the TGI (NCI/ADR-RES ovarian)?
Answer: > 100 µM

Question: And the TGI (SK-OV-3 ovarian)?
Answer: > 100 µM

Question: And the TGI (UO-31 renal)?
Answer: > 100 µM

Question: What about the TGI (NCI-H522 lung) of the same compound?
Answer: > 100 µM

Question: And the TGI (MDA-MB-435)?
Answer: > 100 µM

From PubChem BioAssay (NCI)
